The term IC50 denotes the concentration at which inhibition is half-maximal.

Data on 42 compounds can be found in patent US7868006B2, “Heterocyclic substituted piperazines with CXCR3 antagonist activity” (Schering Corporation, priority 2005, dated 2011).

Where only a bound is given, the exact number is not on record here.

The target of one assay is T1, human CXCR3 (N-delta 4) (Homo sapiens, UniProt P49682).
T1 construct: CD8 leader (N); Flag tag (N); expressed in transfected cells; host or cells: mouse pro-B Ba/F3 cells, stably transfected with pME18Sneo-hCXCR3 (N-delta 4); membrane preparation
T1 sequence (P49682 5-368 limits assumed): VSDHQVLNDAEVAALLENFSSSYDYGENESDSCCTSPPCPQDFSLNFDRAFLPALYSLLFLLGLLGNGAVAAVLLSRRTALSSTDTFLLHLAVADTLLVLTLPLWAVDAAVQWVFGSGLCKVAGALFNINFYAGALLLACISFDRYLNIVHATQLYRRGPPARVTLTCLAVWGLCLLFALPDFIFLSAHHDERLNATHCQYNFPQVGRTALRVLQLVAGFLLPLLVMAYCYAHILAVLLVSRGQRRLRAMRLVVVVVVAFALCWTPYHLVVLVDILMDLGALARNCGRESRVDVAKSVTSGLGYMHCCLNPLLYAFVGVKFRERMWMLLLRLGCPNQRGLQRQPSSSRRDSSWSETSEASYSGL
Nature of the assay: Human CXCR3 (N-delta 4) Scintillation Proximity Assay (SPA), [125I] IP-10 binding. The note with it: Ba/F3-hCXCR3 (N-delta 4) membranes, 25 pM [125I] IP-10; read-out: IC50 value. The text has this: The inventive compounds can readily be evaluated to determine activity at The CXCR3 receptors by known methods, such as, for example, Development of Human CXCR3 (N-delta 4) Binding Assay.
Cloning and Expression of Human CXCR3 (N-delta 4):
The DNA encoding human CXCR3 was cloned by PCR using human genomic DNA (Promega, Madison, Wis.) as a template. The PCR primers were designed based on the published sequence of human orphan receptor GPR9 (1) with incorporated restriction sites, a Kozak consensus sequence, CD8 leader and Flag tag. The PCR product was subcloned into the mammalian expression vector pME18Sneo, a derivative of the SR-alpha expression vector (designated as pME18Sneo-hCXCR3 (N-delta 4).
IL-3-dependent mouse pro-B cells Ba/F3 were transfected by electroporation in 0.4 ml Dulbecco's PBS containing 4×10^6 cells with 20 μg of pME18Sneo-hCXCR3 (N-delta 4) plasmid DNA. Cells were pulsed at 400 Volts, 100 OHMs, 960 μFd. The transfected cells were under selection with 1 mg/ml G418 (Life Technologies, Gaithersburg, Md.). G418-resistant Ba/F3 clones were screened for CXCR3 expression by specific binding of [^125I] IP-10 (NEN Life Science Products, Boston, Mass.).
Preparation of Ba/F3-hCXCR3 (N-delta 4) Membranes:
Ba/F3 cells expressing human CXCR3 (N-delta 4) were pelleted and resuspended in the lysis buffer containing 10 mM HEPES, pH 7.5 and Complete® protease inhibitors (1 tablet per 100 ml) (Boehringer Mannheim, Indianapolis, Ind.) at a cell density of 20×10^6 cells per ml. After 5 minutes incubation on ice, cells were transferred to 4639 cell disruption bomb (Parr Instrument, Moline, Ill.) and applied with 1,500 psi of nitrogen for 30 minutes on ice. Large cellular debris was removed by centrifugation at 1,000×g. Cell membrane in the supernatant was sedimented at 100,000×g. The membrane was resuspended in the lysis buffer supplemented with 10% sucrose and stored at −80° C. Total protein concentration of the membrane was determined by BCA method from Pierce (Rockford, Ill.).
Human CXCR3 (N-delta 4) Scintillation Proximity Assay (SPA):
For each assay point, 2 μg of membrane was preincubated for 1 hr with 300 μg wheat germ agglutinin (WGA) coated SPA beads (Amersham, Arlington Heights, Ill.) in the binding buffer (50 mM HEPES, 1 mM CaCl2, 5 mM MgCl2, 125 mM NaCl, 0.002% NaN3, 1.0% BSA) at room temperature. The beads were spun down, washed once, resuspended in the binding buffer and transferred to a 96-well Isoplate (Wallac, Gaithersburg, Md.). 25 pM of [^125I] IP-10 with tested compounds in a series of titration were added to start the reaction. After 3 hr reaction at room temperature, the amount of [^125I] IP-10 bound to the SPA beads was determined with a Wallac 1450 Microbeta counter.
The Ki values for the various example compounds of the present invention are given in the afore-mentioned Table 1. From these values, it would be apparent to the skilled artisan that the compounds of the invention have excellent utility CXCR3 antagonists.
(In general: In a scintillation proximity assay essentially only radioactivity close to the scintillant gives light.)
`CC[C@H]1CN(c2nc(N)c(-c3nnc(C)o3)nc2Cl)CCN1C1CCN(Cc2ccc(Cl)cc2/C(N)=N\O)CC1` [Compound 1]: the IC50 was 0.2 nM.

Still in this assay, the particulars now being: IC50 rating; Ba/F3-hCXCR3 (N-delta 4) membranes, 25 pM [125I] IP-10; read-out: IC50.
For the compound `CC[C@H]1CN(c2ncc(-c3nc[nH]n3)nc2C)CCN1C1CCN(C(=O)c2ccc(Cl)cc2)CC1` [Compound 49], the IC50 was below 25 nM. The same measure, in the same setting: with `CC[C@H]1CN(c2nc(N)c(-c3nnc(C)o3)nc2Cl)CCN1C1CCN(C(=O)c2ccc(Cl)cc2NC(=O)C(F)(F)F)CC1` [Compound 74] the figure was 25 to 100 nM. On the same count and under the same terms, with `CCNc1nnc(-c2cnc(N3CCN(C4CCN(Cc5ccc(Cl)cc5)CC4)[C@@H](CC)C3)c(C)n2)o1` [Compound 132] the figure was below 25 nM; with `CC[C@H]1CN(c2nc(N)c(C3=NCCN3)nc2Cl)CCN1C1CCN(C(=O)c2ccc(Cl)nc2N)CC1` [Compound 24], below 25 nM.

On to `CC[C@H]1CN(c2ncc(-c3ncc[nH]3)nc2C)[C@H](C)CN1C1CCN(C(=O)c2ccc(Cl)nc2N)CC1` [Compound 130], for which the IC50 is below 25 nM. On to `CCNc1nnc(-c2cnc(N3CCN(C4CCN(C(=O)c5ccc(C(F)(F)F)cc5)CC4)[C@@H](CC)C3)c(C)n2)o1` [Compound 176], for which the IC50 is below 25 nM.

Turning to `CC[C@H]1CN(c2ncc(-c3nnc(NC(C)C)o3)nc2C)CCN1C1CCN(C(=O)c2ccc(F)c(F)c2)CC1` [Compound 159], the IC50 was below 25 nM. On the same count and under the same terms, with `CC[C@H]1CN(c2nc(N)c(-c3nc(N)no3)nc2Cl)CCN1C1CCN(C(=O)c2ccc(Cl)nc2N)CC1` [Compound 84] the figure was above 100 nM; with `CC[C@H]1CN(c2ncc(-c3nnc(C4CC4)[nH]3)nc2C)CCN1C1CCN(C(=O)c2ccc(Cl)cc2)CC1` [Compound 140], below 25 nM.

Consider `CC[C@H]1CN(c2nc(N)c(-c3nnc(C)o3)nc2Cl)CCN1C1CCN([C@H](CO)c2ccc(Cl)cc2)CC1` [Compound 62], for which the IC50 was below 25 nM.

On to `CCOC(=O)CNc1nnc(-c2cnc(N3CCN(C4CCN(Cc5ccc(F)c(F)c5COCc5ccccc5)CC4)[C@@H](CC)C3)c(C)n2)o1` [Compound 195], for which the IC50 lay within 25 to 100 nM. On to `CC[C@H]1CN(c2nc(N)c(-c3nnc(C)o3)nc2Cl)CCN1C1CCN(C(=O)c2cc(F)c(N)nc2Cl)CC1` [Compound 82], for which the IC50 was above 100 nM. As to `CC[C@H]1CN(c2nc(N)c(-c3nnc(C)o3)nc2Cl)CCN1C1CCN(Cc2cnc(N)nc2)CC1` [Compound 95], the IC50 was above 100 nM.

As to `CC[C@H]1CN(c2nc(N)c(-c3nnc(C(=O)NCC(F)(F)F)o3)nc2Cl)CCN1C1CCN(C(=O)c2ccc(Cl)cc2)CC1` [Compound 77], the IC50 lay in the range of 25 to 100 nM.

For `CC[C@H]1CN(c2nc(N)c(-c3nnc(N)o3)nc2Cl)CCN1C1CCN(C(=O)c2ccc(Cl)nc2N)CC1` [Compound 17], the IC50 was below 25 nM. `CC[C@H]1CN(c2ncc(-c3ncc[nH]3)nc2C)CCN1C1CCN(Cc2ccc(OC(F)(F)F)cc2)CC1` [Compound 135]: the IC50 was below 25 nM. Still for that read-out and setting: the figure for `CCNc1nnc(-c2cnc(N3C[C@H](CC)N(C4CCN(Cc5ccc(F)cc5)CC4)C[C@H]3C)c(C(F)(F)F)n2)o1` [Compound 179] is below 25 nM; for `CCNc1nnc(-c2cnc(N3C[C@H](CC)N(C4CCN(Cc5ccc(Cl)cc5O)CC4)C[C@H]3C)c(C)n2)o1` [Compound 168] it is below 25 nM. Same read-out and setting: with `CC[C@H]1CN(c2ncc(C3=NCCN3)nc2Cl)CCN1C1CCN(C(=O)c2ccc(Cl)nc2N)CC1` [Compound 27] the figure was below 25 nM; with `CC[C@H]1CN(c2nc(N)c(-c3nnc(C)o3)nc2Cl)CCN1C1CCN(Cc2ccc(Cl)cc2C#N)CC1` [Compound 48], below 25 nM; with `CC[C@H]1CN(c2nc(N)c(-c3nnc(C)o3)nc2Cl)CCN1C1CCN([C@H](C(=O)OC)c2ccc(Cl)cc2)CC1` [Compound 83], above 100 nM. On the same count and under the same terms, the figure for `CC[C@H]1CN(c2nc(N)c(-c3nnc(CO)o3)nc2Cl)CCN1C1CCN(C(=O)c2ccc(Cl)nc2N)CC1` [Compound 25] is below 25 nM; for `CC[C@H]1CN(c2nc(N)c(-c3nnc(C)o3)nc2Cl)CCN1C1CCN(C(=O)c2ccc(Cl)nc2N)CC1` [Compound 23] it is below 25 nM. Regarding `CCNc1nnc(-c2cnc(N3CCN(C4CCN(Cc5ccc(F)cc5)CC4)[C@@H](CC)C3)c(C)n2)o1` [Compound 117], the IC50 was below 25 nM. On the same count and under the same terms, the figure for `CC[C@H]1CN(c2nc(N)c(-c3nnc(C)o3)nc2Cl)CCN1C1CCN(C(=O)c2ccc(Cl)cc2O)CC1` [Compound 67] is below 25 nM; for `CC[C@H]1CN(c2nc(N)c(-c3nnc(NC(C)C)o3)nc2Cl)CCN1C1CCN(C(=O)c2ccc(Cl)nc2N)CC1` [Compound 11] it is below 25 nM; for `CC[C@H]1CN(c2nc(N)c(-c3nnc(NC)o3)nc2Cl)CCN1C1CCN(C(C(=O)OC)c2ccc(Cl)cc2)CC1` (stereo partly shown) [Compound 190] it is below 25 nM. As to `CCNc1nnc(-c2nc(Cl)c(N3C[C@H](CC)N(C4CCN(C(=O)c5ccc(Cl)nc5N)CC4)C[C@H]3C)nc2N)o1` [Compound 93], the concentration for half-maximal inhibition (IC50) is below 25 nM.

As for `CC[C@H]1CN(c2ncc(-c3nnc(NC)o3)nc2C)[C@H](C)CN1C1CCN(C(=O)c2ccc(Cl)cc2)CC1` [Compound 143], the IC50 is below 25 nM. Same read-out and setting: the figure for `CCNc1nnc(-c2cnc(N3CCN(C4CCN(C(=O)c5ccc(C(F)(F)F)cc5N)CC4)[C@@H](CC)C3)c(C)n2)o1` [Compound 183] is below 25 nM. On the same count and under the same terms, the figure for `CC[C@H]1CN(c2ncc(-c3nnc(C)o3)nc2Cl)CCN1C1CCN(C(=O)c2ccc(Cl)cc2)CC1` [Compound 32] is below 25 nM; for `CC[C@H]1CN(c2ncc(-c3nnc(C)o3)nc2C)CCN1C1CCN(C(=O)c2ccc(Cl)cc2N)CC1` [Compound 21] it is below 25 nM; for `CC[C@H]1CN(c2nc(N)c(-c3nnc(C)o3)nc2Cl)CCN1C1CCN(Cc2ccc(Cl)cc2-c2nnn(C)n2)CC1` [Compound 58] it is below 25 nM.

With `CCNc1nnc(-c2cnc(N3CCN(C4CCN(C(=O)c5ccc(CC)cc5)CC4)[C@@H](CC)C3)c(C)n2)o1` [Compound 139], the IC50 was 25 to 100 nM. For the compound `CC[C@H]1CN(c2nc(N)c(-c3nnc(C)o3)nc2Cl)CCN1C1CCN(Cc2ccc(Cl)cc2/C(N)=N\O)CC1` [Compound 1], the IC50 is below 25 nM. Same read-out and setting: the figure for `CC[C@H]1CN(c2ncc(-c3nnc(NC4(C)CC4)o3)nc2C)[C@H](C)CN1C1CCN(C(=O)c2ccc(Cl)cc2)CC1` [Compound 180] is below 25 nM; for `CC[C@H]1CN(c2ncc(-c3nnc(NC(C)C)o3)nc2C)CCN1C1CCN(C(=O)c2ccc(Cl)nc2N)CC1` [Compound 171] it is below 25 nM.

Consider `CC[C@H]1CN(c2nc(N)c(-c3nnc(CO)o3)nc2Cl)CCN1C1CCN([C@H](C(=O)OC)c2ccc(Cl)cc2)CC1` [Compound 85], for which the IC50 is above 100 nM. For the compound `CC[C@H]1CN(c2ncc(-c3nnc(C)o3)nc2C)CCN1C1CCN(C(=O)c2ccc(C#N)cc2)CC1` [Compound 64], the IC50 is below 25 nM. As to `CC[C@H]1CN(c2nc(N)c(-c3nnc(C)o3)nc2Cl)CCN1C1CCN(C(=O)c2ccc(Cl)cc2NS(C)(=O)=O)CC1` [Compound 92], the IC50 is above 100 nM. On the same count and under the same terms, with `CCNc1nnc(-c2cnc(N3CCN(C4CCN(C(=O)c5ccc(Cl)nc5N)CC4)[C@@H](CC)C3)c(C3CC3)n2)o1` [Compound 181] the figure was 25 to 100 nM.

In the case of `CCNc1nnc(-c2cnc(N3CCN(C4CCN(C(=O)c5ccc(C(F)(F)F)nc5N)CC4)[C@@H](CC)C3)c(C)n2)o1` [Compound 184], the IC50 is below 25 nM.
